# Source: patent US5560935A, “Physiologically active substances extracted from activated tissues” (Nippon Zoki Pharmaceutical Co., Ltd., priority 1993, dated 1996)
# Tested on: plasma kallikrein
# Experiment: Inhibition of the production of plasma kallikrein (kaolin-activated plasma, synthetic substrate)
# Format: biochemical
# Conditions: normal human plasma, kaolin activation, substrate D-Pro-Phe-Arg-p-nitroaniline
# Description: The inhibitory action of the physiologically-active substance against the production of plasma kallikrein was measured according to a method described in Kiso to Rinsho, vol. 20, no. 17, pages 399-405 (1986).
# Thus, a suspension of kaolin was added to normal human plasma diluted with a physiologically saline solution. A lima bean trypsin inhibitor was added thereto after a certain period to stop the kallikrein procluction reaction. Then the resulting kallikrein was determined by using a synthetic substrate (D-Pro-Phe-Arg-p-nitroaniline). The test substance was placed in the above system whereby the inhibitory action of the test substance against the production of kallikrein was determined.
# In Table 1 the potency of the activity is given in terms of the concentration (IC50) at which the production of the plasma kallikrein was inhibited to an extent of 50%: […]
row,Structure (SMILES),"IC50, concentration at which the production of the plasma kallikrein was inhibited to an extent of 50%"
1,CC(C)=CCN1CCC2(C)c3cc(O)ccc3CC1C2C (stereo not drawn) [Pentazocine],"1,600 micrograms/ml"
2,CC(C)Cc1ccc(C(C)C(=O)O)cc1 (stereo not drawn) [Ibuprofen],700 micrograms/ml
3,CC(C(=O)O)c1cccc(C(=O)c2ccccc2)c1 (stereo not drawn) [Ketoprofen],400 micrograms/ml
